# Data reported in PMC5518309 (ChemMedChem, 2014).
# Peptide text beside a SMILES is read from it. * marks the point of attachment. X1 = CN(C)c1ccc2c(c1)Oc1cc(N(C)C)ccc1C21OC(=O)c2ccc(C(=O)*)cc21
# Experiments:
# hY4R = hY4R (Homo sapiens, UniProt P50391); experiment: Radioligand binding assay, displacement of [3H]-hPP
# [1] = cited from earlier work
# [2] = Metabolic stability in porcine liver homogenates; type: in vitro ADME; conditions: pig, porcine liver homogenate (supernatant)
# [3] = Stability test in human blood plasma; type: in vitro ADME; conditions: human
# Chain of hY4R (P50391 whole entry): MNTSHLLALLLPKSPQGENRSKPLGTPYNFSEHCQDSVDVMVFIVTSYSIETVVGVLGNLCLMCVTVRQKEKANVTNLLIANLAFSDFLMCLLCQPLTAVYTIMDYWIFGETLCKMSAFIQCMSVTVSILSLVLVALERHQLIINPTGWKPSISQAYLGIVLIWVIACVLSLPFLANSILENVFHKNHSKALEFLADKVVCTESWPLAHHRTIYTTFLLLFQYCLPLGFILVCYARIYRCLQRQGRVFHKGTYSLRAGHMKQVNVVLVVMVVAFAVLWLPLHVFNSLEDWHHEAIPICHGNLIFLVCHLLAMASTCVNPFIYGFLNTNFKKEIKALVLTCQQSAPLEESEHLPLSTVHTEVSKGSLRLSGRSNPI
IC50 (hY4R) [nM],Compound,further results
8.6,"CCCCCCCCCCCCCCCC(=O)N[C@@H](CCC(=O)NCCCC[C@H](NC(=O)[C@H](C)NC(=O)[C@H](Cc1ccc(O)cc1)NC(=O)[C@H](CCC(N)=O)NC(=O)[C@H](C)NC(=O)[C@H](CCSC)NC(=O)[C@H](CCC(N)=O)NC(=O)[C@H](CCC(=O)O)NC(=O)[C@@H]1CCCN1C(=O)[C@@H](NC(=O)[C@H](C)NC(=O)[C@H](CC(N)=O)NC(=O)[C@H](CC(=O)O)NC(=O)CNC(=O)[C@@H]1CCCN1C(=O)[C@H](Cc1ccc(O)cc1)NC(=O)[C@@H](NC(=O)[C@@H]1CCCN1C(=O)[C@H](CCC(=O)O)NC(=O)[C@H](CC(C)C)NC(=O)[C@@H]1CCCN1C(=O)[C@H](C)NC(=O)c1ccc2c(c1)C(=O)OC21c2ccc(O)cc2Oc2cc(O)ccc21)C(C)C)[C@@H](C)O)C(=O)N[C@@H](CC(=O)O)C(=O)N[C@@H](CC(C)C)C(=O)N[C@@H](CCCNC(=N)N)C(=O)N[C@@H](CCCNC(=N)N)C(=O)N[C@@H](Cc1ccc(O)cc1)C(=O)N[C@H](C(=O)N[C@@H](CC(N)=O)C(=O)N[C@@H](CCSC)C(=O)N[C@@H](CC(C)C)C(=O)N[C@H](C(=O)N[C@@H](CCCNC(=N)N)C(=O)N1CCC[C@H]1C(=O)N[C@@H](CCCNC(=N)N)C(=O)N[C@@H](Cc1ccc(O)cc1)C(N)=O)[C@@H](C)O)[C@@H](C)CC)C(=O)O [compound 5, CF-[K^22(E-Pam)]hPP]",–
14.9,"CCCCCCCCCCCCCCCC(=O)N[C@@H](CCC(=O)NCCCC[C@H](NC(=O)[C@H](CC(N)=O)NC(=O)[C@@H](NC(=O)[C@H](Cc1ccc(O)cc1)NC(=O)[C@H](CCCNC(=N)N)NC(=O)[C@H](CCCNC(=N)N)NC(=O)[C@H](CC(C)C)NC(=O)[C@H](CC(=O)O)NC(=O)[C@H](C)NC(=O)[C@H](C)NC(=O)[C@H](Cc1ccc(O)cc1)NC(=O)[C@H](CCC(N)=O)NC(=O)[C@H](C)NC(=O)[C@H](CCSC)NC(=O)[C@H](CCC(N)=O)NC(=O)[C@H](CCC(=O)O)NC(=O)[C@@H]1CCCN1C(=O)[C@@H](NC(=O)[C@H](C)NC(=O)[C@H](CC(N)=O)NC(=O)[C@H](CC(=O)O)NC(=O)CNC(=O)[C@@H]1CCCN1C(=O)[C@H](Cc1ccc(O)cc1)NC(=O)[C@@H](NC(=O)[C@@H]1CCCN1C(=O)[C@H](CCC(=O)O)NC(=O)[C@H](CC(C)C)NC(=O)[C@@H]1CCCN1C(=O)[C@H](C)NC(=O)c1ccc2c(c1)C(=O)OC21c2ccc(O)cc2Oc2cc(O)ccc21)C(C)C)[C@@H](C)O)[C@@H](C)CC)C(=O)N[C@@H](CC(C)C)C(=O)N[C@H](C(=O)N[C@@H](CCCNC(=N)N)C(=O)N1CCC[C@H]1C(=O)N[C@@H](CCCNC(=N)N)C(=O)N[C@@H](Cc1ccc(O)cc1)C(N)=O)[C@@H](C)O)C(=O)O [compound 6, CF-[K^30(E-Pam)]hPP]",–

# Further lines, the compound ahead of its results:
Compound,IC50 (hY4R) [nM],further results
pancreatic polypeptide [PP],–,half-life in the circulation [1]: less than 7 min
"CCCCCCCCCCCCCCCC(=O)N[C@@H](CCC(=O)NCCCC[C@H](NC(=O)[C@@H](NC(=O)[C@@H]1CCCN1C(=O)[C@H](CCC(=O)O)NC(=O)[C@H](CC(C)C)NC(=O)[C@@H]1CCCN1C(=O)[C@H](C)NC(=O)c1ccc2c(c1)C(=O)OC21c2ccc(O)cc2Oc2cc(O)ccc21)C(C)C)C(=O)N1CCC[C@H]1C(=O)NCC(=O)N[C@@H](CC(=O)O)C(=O)N[C@@H](CC(N)=O)C(=O)N[C@@H](C)C(=O)N[C@H](C(=O)N1CCC[C@H]1C(=O)N[C@@H](CCC(=O)O)C(=O)N[C@@H](CCC(N)=O)C(=O)N[C@@H](CCSC)C(=O)N[C@@H](C)C(=O)N[C@@H](CCC(N)=O)C(=O)N[C@@H](Cc1ccc(O)cc1)C(=O)N[C@@H](C)C(=O)N[C@@H](C)C(=O)N[C@@H](CC(=O)O)C(=O)N[C@@H](CC(C)C)C(=O)N[C@@H](CCCNC(=N)N)C(=O)N[C@@H](CCCNC(=N)N)C(=O)N[C@@H](Cc1ccc(O)cc1)C(=O)N[C@H](C(=O)N[C@@H](CC(N)=O)C(=O)N[C@@H](CCSC)C(=O)N[C@@H](CC(C)C)C(=O)N[C@H](C(=O)N[C@@H](CCCNC(=N)N)C(=O)N1CCC[C@H]1C(=O)N[C@@H](CCCNC(=N)N)C(=O)N[C@@H](Cc1ccc(O)cc1)C(N)=O)[C@@H](C)O)[C@@H](C)CC)[C@@H](C)O)C(=O)O [compound 3, CF-[K^7(E-Pam)]hPP]",401,–
"CC[C@H](C)[C@H](NC(=O)[C@H](Cc1ccc(O)cc1)NC(=O)[C@H](CCCNC(=N)N)NC(=O)[C@H](CCCNC(=N)N)NC(=O)[C@H](CC(C)C)NC(=O)[C@H](CC(=O)O)NC(=O)[C@H](C)NC(=O)[C@H](C)NC(=O)[C@H](Cc1ccc(O)cc1)NC(=O)[C@H](CCC(N)=O)NC(=O)[C@H](C)NC(=O)[C@H](CCSC)NC(=O)[C@H](CCC(N)=O)NC(=O)[C@H](CCC(=O)O)NC(=O)[C@@H]1CCCN1C(=O)[C@@H](NC(=O)[C@H](C)NC(=O)[C@H](CC(N)=O)NC(=O)[C@H](CC(=O)O)NC(=O)CNC(=O)[C@@H]1CCCN1C(=O)[C@H](Cc1ccc(O)cc1)NC(=O)[C@@H](NC(=O)[C@@H]1CCCN1C(=O)[C@H](CCC(=O)O)NC(=O)[C@H](CC(C)C)NC(=O)[C@@H]1CCCN1C(=O)c1ccc2c(c1)C1(OC2=O)c2ccc(N(C)C)cc2Oc2cc(N(C)C)ccc21)C(C)C)[C@@H](C)O)C(=O)N[C@@H](CC(N)=O)C(=O)N[C@@H](CCCCN)C(=O)N[C@@H](CC(C)C)C(=O)N[C@H](C(=O)N[C@@H](CCCNC(=N)N)C(=O)N1CCC[C@H]1C(=O)N[C@@H](CCCNC(=N)N)C(=O)N[C@@H](Cc1ccc(O)cc1)C(N)=O)[C@@H](C)O [14b, TAMRA-[K^30]hPP2–36] (X1-PLEPVYPGDNATPEQMAQYAADLRRYINKLTRPRY-NH2)",–,half-life at 10 μM [2]: 11 ± 0.4 h; half-life at 10 μM [3]: ~100 h
